EC50 and Emax data for five compounds are collected here from patent US12281149B2, “Modulators of G-protein coupled receptors” (priority 2021, dated 2025).

Molecules are shown by their SMILES. *1 amine or outer side, *2 acyl side, *3 side chain or, on linkers, in order; H or OH if unused. Where a SMILES comes first, the peptide text is derived from it. Side-chain parts run from the residue outwards. [ ]: non-standard residue; d: D form. The star is where a group is joined. C20 diacid = O=C(O)CCCCCCCCCCCCCCCCCCC(=O)*; γGlu = O=C(O)[C@H](CCC(=O)[*:2])N[*:1]; X35 = N#Cc1cc(F)cc(C2(C(=O)*)CCCC2)c1; X81 = CCC(CC)(C(=O)*)c1cc(F)cc(C#N)c1; X69 = CC(C)(C(=O)*)c1c(F)cccc1F; X28 = O=C(C1(n2cccn2)CCNCC1)*; X76 = CC(C)(C(=O)*)c1cncnc1; AEEA = NCCOCCOCC(=O)O; Aib = CC(C)(N)C(=O)O; βAla = NCCC(=O)O

Common to all, as to type: cell-based
In experiment [1] the target is T1, GIP receptor (Homo sapiens, UniProt P48546).
T1 sequence (P48546 22-466): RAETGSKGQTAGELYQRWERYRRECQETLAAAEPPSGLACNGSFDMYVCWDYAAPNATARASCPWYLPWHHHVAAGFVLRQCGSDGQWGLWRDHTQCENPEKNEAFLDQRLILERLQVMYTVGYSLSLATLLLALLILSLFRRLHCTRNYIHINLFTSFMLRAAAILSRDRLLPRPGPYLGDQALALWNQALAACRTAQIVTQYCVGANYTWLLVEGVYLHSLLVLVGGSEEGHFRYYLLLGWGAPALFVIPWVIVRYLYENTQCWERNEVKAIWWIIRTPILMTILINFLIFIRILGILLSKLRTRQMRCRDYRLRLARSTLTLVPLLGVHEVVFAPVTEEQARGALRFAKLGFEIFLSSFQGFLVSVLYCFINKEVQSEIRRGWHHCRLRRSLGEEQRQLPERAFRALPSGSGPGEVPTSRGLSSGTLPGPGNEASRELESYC
Put plainly: PathHunter β-arrestin assay, GIP receptor. Set-up: host or cells: PathHunter CHO-K1 GIPR β-Arrestin Cell Line. Particulars: β-arrestin-2 recruitment, PathHunter CHO-K1 GIPR β-Arrestin Cell Line, 90 min at 37° C.; normalized to GIP; read-out: GIPR β Arrestin EC50.

Experiment [2] concerns the target T2, GLP-1 receptor (Homo sapiens, UniProt P43220). Put plainly: HitHunter cAMP assay, GLP-1 receptor. Particulars: for EC50: CHO cells stably expressing human GLP-1 receptor, cAMP accumulation, 30 min, read-out: EC50 GLP-1R; for Emax: CHO cells, cAMP, normalized to maximum signal from GLP-1 (high) and DMSO (low), read-out: Emax GLP-1R.
The target in experiment [3] is T2, GLP-1 receptor. Put plainly: PathHunter β-arrestin assay, GLP-1 receptor. Set-up: host or cells: PathHunter CHO-K1 GLP1R β-Arrestin Cell Line. Particulars: β-arrestin-2 recruitment, PathHunter CHO-K1 GLP1R β-Arrestin Cell Line, 90 min at 37° C.; normalized to GLP-1; read-out: GLP-1R β Arrestin EC50.
In experiment [4] the target is T1, GIP receptor. Put plainly: HitHunter cAMP assay, GIP receptor. Particulars: for EC50: CHO cells stably expressing GIP receptor, cAMP accumulation, 30 min, read-out: EC50 GIP-1R; for Emax: CHO cells, cAMP, normalized to maximum signal from GIP (high) and DMSO (low), read-out: Emax GIP-1R.

T2 sequence (P43220 24-463): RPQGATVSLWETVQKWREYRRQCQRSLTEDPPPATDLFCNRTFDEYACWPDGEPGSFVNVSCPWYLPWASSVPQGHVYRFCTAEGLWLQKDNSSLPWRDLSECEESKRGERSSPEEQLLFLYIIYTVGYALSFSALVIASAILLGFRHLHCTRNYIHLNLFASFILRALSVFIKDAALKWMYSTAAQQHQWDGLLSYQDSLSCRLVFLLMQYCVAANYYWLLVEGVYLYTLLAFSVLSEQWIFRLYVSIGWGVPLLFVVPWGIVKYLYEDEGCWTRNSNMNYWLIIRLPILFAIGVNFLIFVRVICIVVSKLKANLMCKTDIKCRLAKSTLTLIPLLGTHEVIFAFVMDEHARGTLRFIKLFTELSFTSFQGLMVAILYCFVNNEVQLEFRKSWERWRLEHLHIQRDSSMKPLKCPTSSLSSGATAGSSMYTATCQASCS

`CC[C@H](C)[C@H](NC(=O)[C@H](CC(C)C)NC(=O)[C@H](Cc1c[nH]c2ccccc12)NC(=O)[C@H](CCC(N)=O)NC(=O)[C@@H](NC(=O)[C@H](Cc1ccccc1)NC(=O)[C@H](C)NC(=O)[C@H](CCCCNC(=O)COCCOCCNC(=O)COCCOCCNC(=O)CC[C@H](NC(=O)CCCCCCCCCCCCCCCCCCC(=O)O)C(=O)O)NC(=O)[C@H](CCC(N)=O)NC(=O)[C@H](C)NC(=O)[C@@H](NC(=O)[C@H](CCCCN)NC(=O)[C@H](CC(=O)O)NC(=O)[C@H](CC(C)C)NC(=O)C(C)(C)NC(=O)[C@@H](NC(=O)[C@H](CO)NC(=O)[C@H](Cc1ccc(O)cc1)NC(=O)[C@H](CC(=O)O)NC(=O)[C@H](CO)NC(=O)[C@@H](NC(=O)[C@H](Cc1ccccc1)NC(=O)[C@@H](NC(=O)CNC(=O)[C@H](CCC(=O)O)NC(=O)CCNC(=O)C1(n2cccn2)CCNCC1)[C@@H](C)O)[C@@H](C)O)[C@@H](C)CC)[C@@H](C)CC)C(C)C)C(=O)N[C@@H](C)C(=O)NCC(=O)NCC(=O)N1CCC[C@H]1C(=O)N[C@@H](CO)C(=O)N[C@@H](CO)C(=O)NCC(=O)N[C@@H](C)C(=O)N1CCC[C@H]1C(=O)N1CCC[C@H]1C(=O)N1CCC[C@H]1C(=O)N[C@@H](CO)C(N)=O` [Compound 160] ({X28-βAla}-EGTFTSDYSI[Aib]LDKIAQK([AEEA-AEEA-γGlu-C20 diacid])AFVQWLIAGGPSSGAPPPS-NH2): the EC50 at GIP receptor [1] was greater than 1 µM; on GLP-1 receptor [2], 0.01 to 0.1 µM; on GLP-1 receptor [3], greater than 1 µM; at GIP receptor [4], 0.1 to 1 µM. Besides, the Emax at GLP-1 receptor [2] came out at 97%; on GIP receptor [4], 94%.

In the case of `CC[C@H](C)[C@H](NC(=O)[C@H](CC(C)C)NC(=O)[C@H](Cc1c[nH]c2ccccc12)NC(=O)[C@H](CCC(N)=O)NC(=O)[C@@H](NC(=O)[C@H](Cc1ccccc1)NC(=O)[C@H](C)NC(=O)[C@H](CCCCNC(=O)COCCOCCNC(=O)COCCOCCNC(=O)CC[C@H](NC(=O)CCCCCCCCCCCCCCCCCCC(=O)O)C(=O)O)NC(=O)[C@H](CCC(N)=O)NC(=O)[C@H](C)NC(=O)[C@@H](NC(=O)[C@H](CCCCN)NC(=O)[C@H](CC(=O)O)NC(=O)[C@H](CC(C)C)NC(=O)C(C)(C)NC(=O)[C@@H](NC(=O)[C@H](CO)NC(=O)[C@H](Cc1ccc(O)cc1)NC(=O)[C@H](CC(=O)O)NC(=O)[C@H](CO)NC(=O)[C@@H](NC(=O)[C@H](Cc1ccccc1)NC(=O)[C@@H](NC(=O)CNC(=O)[C@H](CCC(=O)O)NC(=O)CCNC(=O)C(C)(C)c1cncnc1)[C@@H](C)O)[C@@H](C)O)[C@@H](C)CC)[C@@H](C)CC)C(C)C)C(=O)N[C@@H](C)C(=O)NCC(=O)NCC(=O)N1CCC[C@H]1C(=O)N[C@@H](CO)C(=O)N[C@@H](CO)C(=O)NCC(=O)N[C@@H](C)C(=O)N1CCC[C@H]1C(=O)N1CCC[C@H]1C(=O)N1CCC[C@H]1C(=O)N[C@@H](CO)C(N)=O` [Compound 161] ({X76-βAla}-EGTFTSDYSI[Aib]LDKIAQK([AEEA-AEEA-γGlu-C20 diacid])AFVQWLIAGGPSSGAPPPS-NH2), the EC50 on GIP receptor [1] was greater than 1 µM; at GLP-1 receptor [2], 0.0001 to 0.001 µM; on GLP-1 receptor [3] it was greater than 1 µM; on GIP receptor [4], 0.01 to 0.1 µM. Besides, the maximum response (Emax) on GLP-1 receptor [2] came to 113%; at GIP receptor [4], 94%.

Consider `CC[C@H](C)[C@H](NC(=O)[C@H](CC(C)C)NC(=O)[C@H](Cc1c[nH]c2ccccc12)NC(=O)[C@H](CCC(N)=O)NC(=O)[C@@H](NC(=O)[C@H](Cc1ccccc1)NC(=O)[C@H](C)NC(=O)[C@H](CCCCNC(=O)COCCOCCNC(=O)COCCOCCNC(=O)CC[C@H](NC(=O)CCCCCCCCCCCCCCCCCCC(=O)O)C(=O)O)NC(=O)[C@H](CCC(N)=O)NC(=O)[C@H](C)NC(=O)[C@@H](NC(=O)[C@H](CCCCN)NC(=O)[C@H](CC(=O)O)NC(=O)[C@H](CC(C)C)NC(=O)C(C)(C)NC(=O)[C@@H](NC(=O)[C@H](CO)NC(=O)[C@H](Cc1ccc(O)cc1)NC(=O)[C@H](CC(=O)O)NC(=O)[C@H](CO)NC(=O)[C@@H](NC(=O)[C@H](Cc1ccccc1)NC(=O)[C@@H](NC(=O)CNC(=O)[C@H](CCC(=O)O)NC(=O)CCNC(=O)C(CC)(CC)c1cc(F)cc(C#N)c1)[C@@H](C)O)[C@@H](C)O)[C@@H](C)CC)[C@@H](C)CC)C(C)C)C(=O)N[C@@H](C)C(=O)NCC(=O)NCC(=O)N1CCC[C@H]1C(=O)N[C@@H](CO)C(=O)N[C@@H](CO)C(=O)NCC(=O)N[C@@H](C)C(=O)N1CCC[C@H]1C(=O)N1CCC[C@H]1C(=O)N1CCC[C@H]1C(=O)N[C@@H](CO)C(N)=O` [Compound 162] ({X81-βAla}-EGTFTSDYSI[Aib]LDKIAQK([AEEA-AEEA-γGlu-C20 diacid])AFVQWLIAGGPSSGAPPPS-NH2), for which the EC50 on GIP receptor [1] was less than 1 µM; at GLP-1 receptor [2] it was 0.001 to 0.01 µM; on GLP-1 receptor [3], greater than 1 µM; on GIP receptor [4], 0.001 to 0.01 µM. The Emax was determined as 127% on GLP-1 receptor [2] and 113% on GIP receptor [4].

As for `CC[C@H](C)[C@H](NC(=O)[C@H](CC(C)C)NC(=O)[C@H](Cc1c[nH]c2ccccc12)NC(=O)[C@H](CCC(N)=O)NC(=O)[C@@H](NC(=O)[C@H](Cc1ccccc1)NC(=O)[C@H](C)NC(=O)[C@H](CCCCNC(=O)COCCOCCNC(=O)COCCOCCNC(=O)CC[C@H](NC(=O)CCCCCCCCCCCCCCCCCCC(=O)O)C(=O)O)NC(=O)[C@H](CCC(N)=O)NC(=O)[C@H](C)NC(=O)[C@@H](NC(=O)[C@H](CCCCN)NC(=O)[C@H](CC(=O)O)NC(=O)[C@H](CC(C)C)NC(=O)C(C)(C)NC(=O)[C@@H](NC(=O)[C@H](CO)NC(=O)[C@H](Cc1ccc(O)cc1)NC(=O)[C@H](CC(=O)O)NC(=O)[C@H](CO)NC(=O)[C@@H](NC(=O)[C@H](Cc1ccccc1)NC(=O)[C@@H](NC(=O)CNC(=O)[C@H](CCC(=O)O)NC(=O)CCNC(=O)C(C)(C)c1c(F)cccc1F)[C@@H](C)O)[C@@H](C)O)[C@@H](C)CC)[C@@H](C)CC)C(C)C)C(=O)N[C@@H](C)C(=O)NCC(=O)NCC(=O)N1CCC[C@H]1C(=O)N[C@@H](CO)C(=O)N[C@@H](CO)C(=O)NCC(=O)N[C@@H](C)C(=O)N1CCC[C@H]1C(=O)N1CCC[C@H]1C(=O)N1CCC[C@H]1C(=O)N[C@@H](CO)C(N)=O` [Compound 163] ({X69-βAla}-EGTFTSDYSI[Aib]LDKIAQK([AEEA-AEEA-γGlu-C20 diacid])AFVQWLIAGGPSSGAPPPS-NH2), the concentration giving a half-maximal response (EC50) is less than 1 µM on GIP receptor [1], 0.0001 to 0.001 µM at GLP-1 receptor [2], greater than 1 µM on GLP-1 receptor [3] and 0.01 to 0.1 µM on GIP receptor [4]. The maximal effect (Emax) at GLP-1 receptor [2] is 104%; on GIP receptor [4] it was 105%.

Consider `CC[C@H](C)[C@H](NC(=O)[C@H](CC(C)C)NC(=O)[C@H](Cc1c[nH]c2ccccc12)NC(=O)[C@H](CCC(N)=O)NC(=O)[C@@H](NC(=O)[C@H](Cc1ccccc1)NC(=O)[C@H](C)NC(=O)[C@H](CCCCNC(=O)COCCOCCNC(=O)COCCOCCNC(=O)CC[C@H](NC(=O)CCCCCCCCCCCCCCCCCCC(=O)O)C(=O)O)NC(=O)[C@H](CCC(N)=O)NC(=O)[C@H](C)NC(=O)[C@@H](NC(=O)[C@H](CCCCN)NC(=O)[C@H](CC(=O)O)NC(=O)[C@H](CC(C)C)NC(=O)C(C)(C)NC(=O)[C@@H](NC(=O)[C@H](CO)NC(=O)[C@H](Cc1ccc(O)cc1)NC(=O)[C@H](CC(=O)O)NC(=O)[C@H](CO)NC(=O)[C@@H](NC(=O)[C@H](Cc1ccccc1)NC(=O)[C@@H](NC(=O)CNC(=O)[C@H](CCC(=O)O)NC(=O)CCNC(=O)C1(c2cc(F)cc(C#N)c2)CCCC1)[C@@H](C)O)[C@@H](C)O)[C@@H](C)CC)[C@@H](C)CC)C(C)C)C(=O)N[C@@H](C)C(=O)NCC(=O)NCC(=O)N1CCC[C@H]1C(=O)N[C@@H](CO)C(=O)N[C@@H](CO)C(=O)NCC(=O)N[C@@H](C)C(=O)N1CCC[C@H]1C(=O)N1CCC[C@H]1C(=O)N1CCC[C@H]1C(=O)N[C@@H](CO)C(N)=O` [Compound 164] ({X35-βAla}-EGTFTSDYSI[Aib]LDKIAQK([AEEA-AEEA-γGlu-C20 diacid])AFVQWLIAGGPSSGAPPPS-NH2), for which the 50% effective concentration (EC50) was greater than 1 µM at GIP receptor [1], 0.001 to 0.01 µM on GLP-1 receptor [2], greater than 1 µM at GLP-1 receptor [3] and 0.001 to 0.01 µM at GIP receptor [4]. The Emax on GLP-1 receptor [2] was determined as 112%; at GIP receptor [4], 106%.

One may read the EC50 as the concentration needed to bring the measured effect to its halfway point. For orientation: Emax means the size of the effect at its maximum, as opposed to the concentration needed.
